Data reported in US20170305857A1, “N-ACYLPIPERIDINE ETHER TROPOMYOSIN-RELATED KINASE INHIBITORS” (Pfizer Limited, priority 2014, published 2017).
pIC50: −log10 of the molar value.

These compounds were tested against T1, recombinant His-tagged cytoplasmic domains of TRKA receptor (NTRK1, PV3144, aa 441-796) (Homo sapiens, UniProt P04629) (assay: Isolated TRK enzyme assay (HTRF KinEASE-TK, PV3144 TrkA enzyme assay)). Settings: 4 nM enzyme, 40 uM ATP, 35 min, arithmetic mean where more than one reading.
T1 construct: aa 441-796; His; purchased Invitrogen PV3144
Format: biochemical
Protocol: Isolated TRK Enzyme assays use the HTRF KinEASE-TK kit (Cisbio Cat #62TK0PEJ) with recombinant His-tagged cytoplasmic domains of TRKA receptor sourced from Invitrogen (see table below). This activity-assay measures the phosphorylation of tyrosine residues within a substrate from the HTRF kit which has been validated by Cisbio for a variety of tyrosine kinases including the TRK receptors.
0.5 mM stock solutions of test compounds are prepared and serially diluted in 100% DMSO. […] Greiner low volume black plates containing 0.2 ul of serially diluted compound, standard and HPE/ZPE are created using the Bravo nanolitre dispenser.
1× enzyme buffer is prepared from 5× Enzymatic Buffer from the Cisbio KinEASE TK kit using MilliQ water. The buffer is then supplemented with 10 mM MgCl and 2 mM DTT (both from Sigma).
Following this preactivation step, 5 ul/well of enzyme+ATP mix is added using a Multidrop Micro to the assay plate, spotted with 0.2 ul 100% DMSO compound. This is left for 20 mins at room temperature before adding 5 ul of 2 uM TK-substrate-Biotin (from the Cisbio kit) diluted in 1× enzyme buffer (1 uM FAC) using the Multidrop Micro. The reaction is incubated at room temperature for the optimized assay reaction time (see table).
After the Detection Reagent addition, plates are covered and incubated at room temperature for 60 minutes. […] Test compound data are expressed as percentage inhibition defined by HPE and ZPE values for each plate. Percentage inhibition in the presence of test compound is plotted against compound concentration on a log scale to determine an IC50 from the resultant sigmoid curve.
Where more than one reading was taken, the arithmetic mean is presented.

T1 sequence (P04629 441-796): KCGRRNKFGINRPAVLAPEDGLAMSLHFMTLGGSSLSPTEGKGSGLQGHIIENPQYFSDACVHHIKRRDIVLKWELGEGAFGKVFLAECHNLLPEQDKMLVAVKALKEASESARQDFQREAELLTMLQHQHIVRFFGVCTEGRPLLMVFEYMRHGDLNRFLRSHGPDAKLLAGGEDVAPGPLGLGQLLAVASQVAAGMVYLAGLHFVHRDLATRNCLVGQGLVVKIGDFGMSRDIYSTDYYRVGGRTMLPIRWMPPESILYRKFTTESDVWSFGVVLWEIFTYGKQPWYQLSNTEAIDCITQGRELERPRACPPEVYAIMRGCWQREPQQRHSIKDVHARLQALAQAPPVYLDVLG

| Structure (SMILES) | pIC50 |
| --- | --- |
| Cn1cc(-c2ccc(OC3CCN(C(=O)Cc4ccc(C(C)(C)C)nc4)CC3)c(C(N)=O)c2)cn1 [Example 18, 2-({1-[(6-tert-butylpyridin-3-yl)acetyl]piperidin-4-yl}oxy)-5-(1-methyl-1H-pyrazol-4-yl)benzamide] | 8.05 |
| CS(=O)(=O)Cn1cc(-c2cnc(OC3CCN(C(=O)Cc4ccc(OC(F)(F)F)cc4)CC3)c(C(N)=O)c2)cn1 [Example 20, 5-{1-[(methylsulfonyl)methyl]-1H-pyrazol-4-yl}-2-[(1-{[4-(trifluoromethoxy)phenyl]acetyl}pjperidin-4-yl)oxy]pyridine-3-carboxamide] | 8.24 |
| CS(=O)(=O)Cn1cc(-c2cnc(OC3CCN(C(=O)Cc4ccc(OC(F)(F)F)c(F)c4)CC3)c(C(N)=O)c2)cn1 [Example 21, 2-[(1-{[3-fluoro-4-(trifluoromethoxy)phenyl]acetyl}piperidin-4-yl)oxy]-5-{1-[(methylsulfonyl)methyl]-1H-pyrazol-4-yl}pyridine-3-carboxamide] | 7.96 |
| NC(=O)c1cc(-c2cnn(C3CS(=O)(=O)C3)c2)cnc1O[C@H]1CCN(C(=O)Cc2ccc(OC(F)(F)F)cc2)C[C@H]1F [Example 22, 5-[1-(1,1-dioxidothietan-3-yl)-1H-pyrazol-4-yl]-2-{[(3R,4S)-3-fluoro-1-{[4-(trifluoromethoxy)phenyl]acetyl}piperidin-4-yl]oxy}pyridine-3-carboxamide] | 8.92 |
| NC(=O)c1cc(-c2cnn(C3CS(=O)(=O)C3)c2)cnc1O[C@@H]1CCN(C(=O)Cc2ccc(OC(F)(F)F)cc2)C[C@@H]1F [Example 23, 5-[1-(1,1-dioxidothietan-3-yl)-1H-pyrazol-4-yl]-2-{[(3S,4R)-3-fluoro-1-{[4-(trifluoromethoxy)phenyl]acetyl}piperidin-4-yl]oxy}pyridine-3-carboxamide] | 8.85 |
| CS(=O)(=O)Cn1cc(-c2cnc(O[C@@H]3CCN(C(=O)Cc4ccc(OC(F)(F)F)c(F)c4)C[C@@H]3F)c(C(N)=O)c2)cn1 [Example 24, 2-{[(3S,4R)-3-fluoro-1-{[3-fluoro-4-(trifluoromethoxy)phenyl]acetyl}pipertdin-4-yl]oxy}-5-{1-[(methylsulfonyl)methyl]-1H-pyrazol-4-yl}pyridine-3-carboxamide] | 8.54 |
| CS(=O)(=O)Cn1cc(-c2cnc(O[C@H]3CCN(C(=O)Cc4ccc(OC(F)(F)F)cc4)C[C@@H]3F)c(C(N)=O)c2)cn1 [Example 25, 2-{[(3S,4S)-3-fluoro-1-{[4-(trifluoromethoxy)phenyl]acetyl}piperidin-4-yl]oxy}-5-{1-[(methylsulfonyl)methyl]-1H-pyrazol-4-yl}pyridine-3-carboxamide] | 8.43 |
| CS(=O)(=O)Cn1cc(-c2cnc(O[C@H]3CCN(C(=O)Cc4ccc(OC(F)(F)F)c(F)c4)C[C@@H]3F)c(C(N)=O)c2)cn1 [Example 26, 2-{[(3S,4S)-3-fluoro-1-{[3-fluoro-4-(trifluoromethoxy)phenyl]acetyl}piperidin-4-yl]oxy}-5-{1-[(methylsulfonyl)methyl]-1H-pyrazol-4-yl}pyridine-3-carboxamide] | 8.05 |
| Cn1cnc(-c2cnc(O[C@H]3CCN(C(=O)Cc4ccc(OC5CC5)cc4)C[C@@H]3F)c(C(N)=O)c2)c1 [Example 27, 2-{[(3S,4S)-1-{[4-(cyclopropyloxy)phenyl]acetyl}-3-fluoropiperidin-4-yl]oxy}-5-(1-methyl-1H-imidazol-4-yl)pyridine-3-carboxamide] | 8.68 |
| CS(=O)(=O)Cn1cc(-c2cnc(O[C@@H]3CCN(C(=O)Cc4ccc(OC5CC5)cc4)C[C@@H]3F)c(C(N)=O)c2)cn1 [Example 28, 2-{[(3S,4R)-1-{[4-(cyclopropyloxy)phenyl]acetyl}-3-fluoropiperidin-4-yl]oxy}-5-{1-[(methylsulfonyl)methyl]-1H-pyrazol-4-yl}pyridine-3-carboxamide] | 8.64 |
| Cn1cnc(-c2cnc(O[C@@H]3CCN(C(=O)Cc4ccc(OC5CC5)cn4)C[C@@H]3F)c(C(N)=O)c2)c1 [Example 29, 2-{[(3S,4R)-1-{[5-(cyclopropyloxy)pyridin-2-yl]acetyl}-3-fluoropiperidin-4-yl]oxy}-5-(1-methyl-1H-imidazol-4-yl)pyridine-3-carboxamide] | 8.37 |
| CS(=O)(=O)Cn1cc(-c2cnc(O[C@H]3CCN(C(=O)Cc4ccc(OC5CC5)cc4)C[C@@H]3F)c(C(N)=O)c2)cn1 [Example 30, 2-{[(3S,4S)-1-{[4-(cyclopropyloxy)phenyl]acetyl}-3-fluoropiperidin-4-yl]oxy}-5-{1-[(methylsulfonyl)methyl]-1H-pyrazol-4-yl}pyridine-3-carboxamide] | 8.32 |
| Cn1cnc(-c2cnc(O[C@H]3CCN(C(=O)Cc4ccc(OC5CC5)cn4)C[C@@H]3F)c(C(N)=O)c2)c1 [Example 31, 2-{[(3S,4S)-1-{[5-(cyclopropyloxy)pyridin-2-yl]acetyl}-3-fluoropiperidin-4-yl]oxy}-5-(1-methyl-1H-imidazol-4-yl)pyridine-3-carboxamide] | 8.05 |
| CC(C)(O)Cn1cc(-c2cnc(O[C@@H]3CCN(C(=O)Cc4ccc(OC5CC5)cn4)C[C@@H]3F)c(C(N)=O)c2)cn1 [Example 32, 2-{[(3S,4R)-1-{[5-(cyclopropyloxy)pyridin-2-yl]acetyl}-3-fluoropiperidin-4-yl]oxy}-5-[1-(2-hydroxy-2-methylpropyl)-1H-pyrazol-4-yl]pyridine-3-carboxamide] | 8.14 |
| CC(C)(O)Cn1cc(-c2cnc(O[C@H]3CCN(C(=O)Cc4ccc(OC5CC5)cn4)C[C@H]3F)c(C(N)=O)c2)cn1 [Example 33, 2-{[(3R,4S)-1-{[5-(cyclopropyloxy)pyridin-2-yl]acetyl}-3-fluoropiperidin-4-yl]oxy}-5-[1-(2-hydroxy-2-methylpropyl)-1H-pyrazol-4-yl]pyridine-3-carboxamide] | 8.31 |
| CC(C)(O)Cn1cc(-c2ccc(O[C@H]3CCN(C(=O)Cc4ccc(OC5CC5)cn4)C[C@@H]3F)c(C(N)=O)c2)cn1 [Example 34, 2-{[(3S,4S)-1-{[5-(cyclopropyloxy)pyridin-2-yl]acetyl}-3-fluoropiperidin-4-yl]oxy}-5-[1-(2-hydroxy-2-methylpropyl)-1H-pyrazol-4-yl]benzamide] | 8.11 |
| CS(=O)(=O)Cn1cc(-c2cc(C(N)=O)c(O[C@@H]3CCN(C(=O)Cc4ccc(OC5CC5)cc4)C[C@@H]3F)cn2)cn1 [Example 35, 5-{[(3S,4R)-1-{[4-(cyclopropyloxy)phenyl]acetyl}-3-fluoropiperidin-4-yl]oxy}-2-{1-[(methylsulfonyl)methyl]-1H-pyrazol-4-yl}pyridine-4-carboxamide] | 8.11 |
| CS(=O)(=O)Cn1cc(-c2cc(C(N)=O)c(O[C@@H]3CCN(C(=O)Cc4ccc(OC(F)(F)F)cc4)C[C@@H]3F)cn2)cn1 [Example 36, 5-{[(3S,4R)-3-fluoro-1-{[4-(trifluoromethoxy)phenyl]acetyl}piperidin-4-yl]oxy}-2-{1-[(methylsulfonyl)methyl]-1H-pyrazol-4-yl}pyridine-4-carboxamide] | 8.47 |
| CS(=O)(=O)Cn1cc(-c2cc(C(N)=O)c(O[C@@H]3CCN(C(=O)Cc4ccc(OC(F)(F)F)c(F)c4)C[C@@H]3F)cn2)cn1 [Example 37, 5-{[(3S,4R)-3-fluoro-1-{[3-fluoro-4-(trifluoromethoxy)phenyl]acetyl}piperidin-4-yl]oxy}-2-{1-[(methylsulfonyl)methyl]-1H-pyrazol-4-yl}pyridine-4-carboxamide] | 8.13 |
